#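 96-well plates; 48 h exposure; 5 concentrations. Endpoints by linear interpolation between flanking doses. Not reached: highest tested concentration assigned. At the GI50, growth is halved. TGI denotes the concentration required for complete inhibition of growth.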
# Tests used:
# Experiment in all cases: DTP human tumour cell line panel, 48 h
# NCI-H226 lung = tested on: NCI-H226 lung
# SW-620 colon = tested on: SW-620 colon
# MOLT-4 leukemia = tested on: MOLT-4 leukemia
# SNB-19 CNS = tested on: SNB-19 CNS
# RPMI-8226 leukemia = tested on: RPMI-8226 leukemia
# UACC-62 melanoma = tested on: UACC-62 melanoma
# SK-MEL-2 melanoma = tested on: SK-MEL-2 melanoma
# T-47D breast = tested on: T-47D breast
# NCI-H522 lung = tested on: NCI-H522 lung
# MDA-MB-435 = tested on: MDA-MB-435
# SK-MEL-28 melanoma = tested on: SK-MEL-28 melanoma
# DU-145 prostate = tested on: DU-145 prostate
# HOP-62 NSCLC = tested on: HOP-62 NSCLC
# SK-MEL-5 melanoma = tested on: SK-MEL-5 melanoma
# CAKI-1 renal = tested on: CAKI-1 renal
# 786-0 renal = tested on: 786-0 renal
# HT29 colon = tested on: HT29 colon
# COLO 205 colon = tested on: COLO 205 colon
# A549 NSCLC = tested on: A549 NSCLC
# OVCAR-5 ovarian = tested on: OVCAR-5 ovarian
# MALME-3M melanoma = tested on: MALME-3M melanoma
# MCF7 breast = tested on: MCF7 breast
# NCI-H460 lung = tested on: NCI-H460 lung
# HL-60(TB) leukemia = tested on: HL-60(TB) leukemia
# UACC-257 melanoma = tested on: UACC-257 melanoma
# PC-3 prostate = tested on: PC-3 prostate
# EKVX NSCLC = tested on: EKVX NSCLC
# UO-31 renal = tested on: UO-31 renal
# U251 CNS = tested on: U251 CNS
structure (smiles),measurement,setting,value
CC(C)N=C([Se])NC(=O)c1ccccc1,GI50,NCI-H226 lung,2.11 µM
same,TGI,NCI-H226 lung,5.94 µM
same,GI50,SW-620 colon,2.06 µM
same,TGI,SW-620 colon,4.63 µM
same,GI50,MOLT-4 leukemia,2.33 µM
same,TGI,MOLT-4 leukemia,6.07 µM
same,GI50,SNB-19 CNS,2.91 µM
same,TGI,SNB-19 CNS,10.8 µM
same,GI50,RPMI-8226 leukemia,2.64 µM
same,TGI,RPMI-8226 leukemia,7.83 µM
same,GI50,UACC-62 melanoma,1.96 µM
same,TGI,UACC-62 melanoma,4.07 µM
same,GI50,SK-MEL-2 melanoma,2.08 µM
same,TGI,SK-MEL-2 melanoma,4.88 µM
same,GI50,T-47D breast,1.98 µM
same,TGI,T-47D breast,4.52 µM
same,GI50,NCI-H522 lung,1.64 µM
same,TGI,NCI-H522 lung,3.17 µM
same,GI50,MDA-MB-435,2.69 µM
same,TGI,MDA-MB-435,8.5 µM
same,GI50,SK-MEL-28 melanoma,1.94 µM
same,TGI,SK-MEL-28 melanoma,3.62 µM
same,GI50,DU-145 prostate,1.95 µM
same,TGI,DU-145 prostate,3.6 µM
same,GI50,HOP-62 NSCLC,2.03 µM
same,TGI,HOP-62 NSCLC,5.19 µM
same,GI50,SK-MEL-5 melanoma,1.88 µM
same,TGI,SK-MEL-5 melanoma,3.67 µM
same,GI50,CAKI-1 renal,1.67 µM
same,TGI,CAKI-1 renal,3.04 µM
same,GI50,786-0 renal,1.8 µM
same,TGI,786-0 renal,3.25 µM
same,GI50,HT29 colon,2.34 µM
same,TGI,HT29 colon,5.99 µM
same,GI50,COLO 205 colon,2.49 µM
same,TGI,COLO 205 colon,6.46 µM
same,GI50,A549 NSCLC,3.11 µM
same,TGI,A549 NSCLC,34.8 µM
same,GI50,OVCAR-5 ovarian,1.97 µM
same,TGI,OVCAR-5 ovarian,3.72 µM
same,GI50,MALME-3M melanoma,1.63 µM
same,TGI,MALME-3M melanoma,3.09 µM
same,GI50,MCF7 breast,1.7 µM
same,TGI,MCF7 breast,3.66 µM
same,GI50,NCI-H460 lung,2.93 µM
same,TGI,NCI-H460 lung,11.6 µM
same,GI50,HL-60(TB) leukemia,2.07 µM
same,TGI,HL-60(TB) leukemia,5.37 µM
same,GI50,UACC-257 melanoma,1.92 µM
same,TGI,UACC-257 melanoma,4.06 µM
same,GI50,PC-3 prostate,2.01 µM
same,TGI,PC-3 prostate,4.37 µM
same,GI50,EKVX NSCLC,1.77 µM
same,TGI,EKVX NSCLC,3.32 µM
same,GI50,UO-31 renal,1.64 µM
same,TGI,UO-31 renal,3 µM
same,GI50,U251 CNS,1.86 µM
same,TGI,U251 CNS,3.51 µM

# From PubChem BioAssay (NCI)
